Here are results for 19 molecules from patent publication US11802120B2, “Fused cyclic urea derivatives as CRHR2 antagonist” (RaQualia Pharma Inc., priority 2018, dated 2023).

As a reminder, the pIC50 is the IC50 on a negative log10 scale, so that one unit is a factor of ten.

pIC50: −log10 of the molar value.

What all share (format): cell-based
Assay [1] has as its target T1, human CRHR2-alpha (Homo sapiens, UniProt Q13324).
T1 sequence (Q13324 1-411): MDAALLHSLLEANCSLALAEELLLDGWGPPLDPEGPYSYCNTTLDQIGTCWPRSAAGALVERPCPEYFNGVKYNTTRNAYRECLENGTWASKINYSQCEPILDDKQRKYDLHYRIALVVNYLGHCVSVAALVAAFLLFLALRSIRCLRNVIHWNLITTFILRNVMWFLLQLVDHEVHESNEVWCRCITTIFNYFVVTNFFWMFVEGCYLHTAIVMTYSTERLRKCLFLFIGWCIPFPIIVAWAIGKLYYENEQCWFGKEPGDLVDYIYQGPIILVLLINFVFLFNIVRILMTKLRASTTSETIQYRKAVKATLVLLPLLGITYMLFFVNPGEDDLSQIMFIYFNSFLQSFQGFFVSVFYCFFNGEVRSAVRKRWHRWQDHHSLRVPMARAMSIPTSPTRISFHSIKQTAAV
The experiment in a line: cAMP functional assay for human CRHR2 (LANCE Ultra cAMP, TR-FRET). The conditions noted are these: CHO-K1 cells expressing human CRHR2-alpha, agonist human urocortin2 at EC80, cAMP; read-out: IC50 against CRHR2. The method, boiled down: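 Antagonism measured in CHO-K1 cells stably expressing the receptor, serum-starved 7 h then cryopreserved. Thawed cells in HBSS buffer with 0.1% BSA, 0.5 mM IBMX, 5 mM Hepes pH 7.4 were preincubated with compound 30 min at 25° C, then stimulated 30 min with EC80 agonist: urocortin2 for CRHR2, CRF for CRHR1.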

Assay [2] concerns the target T2, human CRHR1-beta (Homo sapiens, UniProt P34998).
T2 sequence (P34998 24-444 isoform P34998-1 limits assumed): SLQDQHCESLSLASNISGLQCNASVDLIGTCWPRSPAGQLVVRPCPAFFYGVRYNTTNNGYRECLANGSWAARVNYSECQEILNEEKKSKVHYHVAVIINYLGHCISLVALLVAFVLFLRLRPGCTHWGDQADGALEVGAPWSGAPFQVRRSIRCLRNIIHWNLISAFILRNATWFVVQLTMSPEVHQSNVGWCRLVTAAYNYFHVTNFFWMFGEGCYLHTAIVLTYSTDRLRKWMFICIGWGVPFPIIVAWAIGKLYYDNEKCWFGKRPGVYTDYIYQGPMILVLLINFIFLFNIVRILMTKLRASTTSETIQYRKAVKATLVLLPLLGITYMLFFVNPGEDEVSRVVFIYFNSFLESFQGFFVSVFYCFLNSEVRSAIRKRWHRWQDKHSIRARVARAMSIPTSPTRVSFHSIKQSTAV
The experiment in a line: cAMP functional assay for human CRHR1 (LANCE Ultra cAMP, TR-FRET). The conditions noted are these: CHO-K1 cells expressing human CRHR1-beta, agonist CRF at EC80, cAMP; read-out: IC50 against CRHR1. As to the method: cAMP functional assay for human CRHR1 and CRHR2
The ability of the compounds of this invention to inhibit either CRHR2 or CRHR1 is assessed by 3′,5′-cyclic adenosine monophosphate (cAMP) production in cells using the LANCE Ultra cAMP assay kit (ParkinElmer), which are designed based on the homogeneous time-resolved fluorescence resonance energy transfer (TR-FRET) immunoassay.
CHO-K1 (Chinese hamster ovary) cells stably expressing either human CRHR2-alpha (DiscoveRX, Cat. 95-0048C2) or human CRHR1-beta (DiscoveRX, Cat. 95-0047C2) are grown in HAM's F12 media supplemented with 10% fetal bovine serum (FBS), 100 units/mL penicillin, 100 microg/mL hygromycin and 0.5 microg/mL geneticin at 37° C. in 5% CO2 humidified incubator to 80% confluence. After 7 hours starvation treatment in culture media containing 0.1% FBS, the cells are washed with Hanks balanced salt solution (HBSS) and cryopreserved.
For cAMP assay, frozen cells are thawed and washed with HBSS, followed by resuspended in assay buffer (HBSS containing 0.1% bovine serum albumin, 0.5 mM isobutylmethylxanthine and 5 mM Hepes, pH 7.4) at the appropriate concentration for the assay. The cell suspensions are plated on 384-well microplates (Greiner Bio-One) at a density of 4,000 cells per well. After preincubating the cells with various concentrations of the compounds for 30 min at 25° C., an assay buffer containing EC80 concentration of each agonist is added and the cells are incubated for 30 min at 25° C. Human urocortin2 (Peptide Institute) and CRF (Peptide Institute) are used as agonists for CRHR2 and CRHR1, respectively. For the termination of assay, europium-labeled cAMP tracer and ULight (registered trademark) dye labeled cAMP antibodies, both prepared with Lance-Ultra cAMP detection reagent (Perkin Elmer) are added in the plate and incubate for 60 min at 25° C. After incubation, TR-FRET signal is detected by EnVision plate reader (PerkinElmer). The IC50 values for compounds are calculated from dose-response curves by fitting the percent inhibition using XLfit (ID Business Solutions).
A general note: Time-resolved FRET reads energy transfer from a long-lived donor to a nearby acceptor.

Assay [3] addresses T3, CRHR2 (Homo sapiens, UniProt Q13324).
T3 sequence (Q13324 1-411): T1 sequence (Q13324 1-411)
The experiment in a line: CRHR2 antagonistic activity (inhibitory activity against CRHR2).

As to `COc1cc(-n2c(=O)n(C[C@H]3CC[C@H](NC(=O)c4cc(Cl)cnc4C)CC3)c3ccccc32)ccn1` [Example 45, 5-chloro-N-((1r,4r)-4-((3-(2-methoxypyridin-4-yl)-2-oxo-2,3-dihydro-1H-benzo[d]imidazol-1-yl)methyl)cyclohexyl)-2-methylnicotinamide], the negative logarithm of the IC50 (pIC50) in assay [1] was greater than 6.52; in assay [2], greater than 6.00.
For the molecule `CNC(=O)c1ccc(-n2c(=O)n(C[C@H]3CC[C@H](NC(=O)c4cc(Cl)cnc4C)CC3)c3ccccc32)cn1` [Example 63, 5-(3-(((1r,4r)-4-(5-chloro-2-methylnicotinamido)cyclohexyl)methyl)-2-oxo-2,3-dihydro-1H-benzo[d]imidazol-1-yl)-N-methylpicolinamide], the values for the pIC50 in assay [1] and in assay [2] were greater than 6.52 and greater than 6.00, respectively.
In the case of `Cc1ncc(Cl)cc1C(=O)N[C@H]1CC[C@H](Cn2c(=O)n(-c3ccc(N(C)C)nn3)c3ccccc32)CC1` [Example 67, 5-chloro-N-((1r,4r)-4-((3-(6-(dimethylamino)pyridazin-3-yl)-2-oxo-2,3-dihydro-1H-benzo[d]imidazol-1-yl)methyl)cyclohexyl)-2-methylnicotinamide], the figures for the pIC50 in assay [1] and in assay [2] were greater than 6.52 and greater than 6.00, respectively.
`Cc1ncc(Cl)cc1C(=O)N[C@H]1CC[C@H](Cn2c(=O)n(-c3ccccc3)c3ccccc32)CC1` [Example 1, 5-chloro-2-methyl-N-((1r,4r)-4-((2-oxo-3-phenyl-2,3-dihydro-1H-benzo[d]imidazol-1-yl)methyl)cyclohexyl)nicotinamide] showed a pIC50 in assay [3] of 6.41.
`CNc1ccc(-n2c(=O)n(C[C@H]3CC[C@H](NC(=O)c4cc(Cl)cnc4C)CC3)c3ccccc32)cn1` [Example 91, 5-chloro-2-methyl-N-((1r,4r)-4-((3-(6-(methylamino)pyridin-3-yl)-2-oxo-2,3-dihydro-1H-benzo[d]imidazol-1-yl)methyl)cyclohexyl)nicotinamide]: the pIC50 in assay [1] is greater than 6.52; in assay [2] it was greater than 6.00.
Take `Cc1ncc(Cl)cc1C(=O)N[C@H]1CC[C@H](Cn2c(=O)n(-c3ccc(N(C)CCCO)nc3)c3ccccc32)CC1` [Example 94, 5-chloro-N-((1r,4r)-4-((3-(6-((3-hydroxypropyl)(methyl)amino)pyridin-3-yl)-2-oxo-2,3-dihydro-1H-benzo[d]imidazol-1-yl)methyl)cyclo-hexyl)-2-methylnicotinamide]: the pIC50 in assay [1] was greater than 6.52; in assay [2], greater than 6.00.
With `Cc1ccc(-n2c(=O)n(C[C@H]3CC[C@H](NC(=O)c4cc(Cl)cnc4C)CC3)c3ccccc32)c(C)n1` [Example 32, 5-chloro-N-((1r,4r)-4-((3-(2,6-dimethylpyridin-3-yl)-2-oxo-2,3-dihydro-1H-benzo[d]imidazol-1-yl)methyl)cyclohexyl)-2-methylnicotinamide], the results for the pIC50 in assay [1] and in assay [2] were greater than 6.52 and greater than 6.00, respectively.
In the same order, the values of `CCNc1ccc(-n2c(=O)n(C[C@H]3CC[C@H](NC(=O)c4cc(Cl)cnc4C)CC3)c3ccccc32)cn1` [Example 92, 5-chloro-N-((1r,4r)-4-((3-(6-(ethylamino)pyridin-3-yl)-2-oxo-2,3-dihydro-1H-benzo [d]imidazol-1-yl)methyl)cyclohexyl)-2-methylnico-tinamide] are greater than 6.52 and greater than 6.00.
In the same order, the values of `Cc1ccc(-n2c(=O)n(C[C@H]3CC[C@H](NC(=O)c4cc(Cl)cnc4C)CC3)c3ccccc32)cc1` [Example 25, 5-chloro-2-methyl-N-((1r,4r)-4-((2-oxo-3-(p-tolyl)-2,3-dihydro-1H-benzo[d]imidazol-1-yl)methyl)cyclohexyl)nicotinamide] are greater than 6.52 and greater than 6.00.
Turning to `Cc1ncc(Cl)cc1C(=O)N[C@H]1CC[C@H](Cn2c(=O)n(C3CCCCC3)c3ccccc32)CC1` [reference compound (A), reference compound], the pIC50 in assay [3] is 5.51.
Take `Cc1ncc(Cl)cc1C(=O)N[C@H]1CC[C@H](Cn2c(=O)n(-c3ccc(F)cc3)c3ccccc32)CC1` [Example 15, 5-chloro-N-((1r,4r)-4-((3-(4-fluorophenyl)-2-oxo-2,3-dihydro-1H-benzo[d]imidazol-1-yl)methyl)cyclohexyl)-2-methylnicotinamide]: the pIC50 in assay [1] is greater than 6.52; in assay [2], greater than 6.00.
Take `Cc1ncc(Cl)cc1C(=O)N[C@H]1CC[C@H](Cn2c(=O)n(-c3ccc(OCCO)nc3)c3ccccc32)CC1` [Example 50, 5-chloro-N-((1r,4r)-4-((3-(6-(2-hydroxyethoxy)pyridin-3-yl)-2-oxo-2,3-dihydro-1H-benzo[d]imidazol-1-yl)methyl)cyclohexyl)-2-methylnicotinamide]: the negative-log IC50 (pIC50) in assay [1] is greater than 6.52; in assay [2], greater than 6.00.
In the same order, the values of `CC(=O)c1ccc(-n2c(=O)n(C[C@H]3CC[C@H](NC(=O)c4cc(Cl)cnc4C)CC3)c3ccccc32)cc1` [Example 18, N((1r,4r)-4-((3-(4-acetylphenyl)-2-oxo-2,3-dihydro-1H-benzo[d]imidazol-1-yl)methyl)cyclohexyl)-5-chloro-2-methylnicotinamide] are greater than 6.52 and greater than 6.00.
In the same order, the values of `COc1ccccc1-n1c(=O)n(C[C@H]2CC[C@H](NC(=O)c3cc(Cl)cnc3C)CC2)c2ccccc21` [Example 34, 5-chloro-N-((1r,4r)-4-((3-(2-methoxyphenyl)-2-oxo-2,3-dihydro-1H-benzo[d]imidazol-1-yl)methyl)cyclohexyl)-2-methylnicotinamide] are greater than 6.52 and greater than 6.00.
For `CCn1c(=O)n(C[C@H]2CC[C@H](NC(=O)c3cc(Cl)cnc3C)CC2)c2ccccc21` [Example 2.46, reference compound], the negative logarithm of the IC50 (pIC50) in assay [3] is 5.52.
Take `Cc1ncc(Cl)cc1C(=O)N[C@H]1CC[C@H](Cn2c(=O)n(-c3ccc(C(N)=O)nc3)c3ccccc32)CC1` [Example 62, 5-(3-(((1r,4r)-4-(5-chloro-2-methylnicotinamido)cyclohexyl)methyl)-2-oxo-2,3-dihydro-1H-benzo[d]imidazol-1-yl)picolinamide]: the figures for the negative logarithm of the IC50 (pIC50) in assay [1] and in assay [2] were greater than 6.52 and greater than 6.00, respectively.
`Cc1ncc(Cl)cc1C(=O)N[C@H]1CC[C@H](Cn2c(=O)n(C)c3ccccc32)CC1` [Example 2.50, reference compound]: the pIC50 in assay [3] is 4.89.
For `Cc1ncc(Cl)cc1C(=O)N[C@H]1CC[C@H](Cn2c(=O)n(-c3ccc(N(C)CCO)nc3)c3ccccc32)CC1` [Example 64, 5-chloro-N-((1r,4r)-4-((3-(6-((2-hydroxyethyl)(methyl)amino)pyridin-3-yl)-2-oxo-2,3-dihydro-1H-benzo[d]imidazol-1-yl)methyl)cyclohexyl)-2-methylnicotinamide], the pIC50 in assay [1] was greater than 6.52; in assay [2], greater than 6.00.
For `COc1ccc(-n2c(=O)n(C[C@H]3CC[C@H](NC(=O)c4cc(Cl)cnc4C)CC3)c3ccccc32)cc1` [Example 27, 5-chloro-N-((1r,4r)-4-((3-(4-methoxyphenyl)-2-oxo-2,3-dihydro-1H-benzo[d]imidazol-1-yl)methyl)cyclohexyl)-2-methylnicotinamide] the same measures were greater than 6.52 and greater than 6.00.
